This assay deals with T1, Thrombin (Factor IIa) (Homo sapiens, UniProt P00734).
T1 construct: purchased Centraal Laboratorium voor Bloedtransfusie, Amsterdam, The Netherlands
Nature of the assay: Anti-thrombin assay (hydrolysis of chromogenic substrate S-2238). The assay is classed as biochemical. The conditions noted are these: chromogenic substrate S-2238, TNP buffer, 37° C., absorbance at 405 nm. The protocol:
Thrombin (Factor IIa) is a factor in the coagulation cascade. The anti-thrombin activity of compounds of the present invention was assessed by measuring spectrophotometrically the rate of hydrolysis of the chromogenic substrate s-2238 exterted by thrombin. This assay for anti-thrombin activity in a buffer system was used to assess the IC50-value of a test compound.
Test medium: Tromethamine-NaCl-polyethylene glycol 6000 (TNP) buffer. Reference compound: 12581 (Kabi) Vehicle: TNP buffer. Solubilisation can be assisted with dimethylsulphoxide, methanol, ethanol, acetonitrile or tert-butyl alcohol which are without adverse effects in concentrations up to 2.5% in the final reaction mixture.
Reagents*: 1. Tromethamine-NaCl (TN) buffer. Composition of the buffer: Tromethamine (Tris) 6.057 g (50 mmol), NaCl 5.844 g (100 mmol), water to 1 l. The pH of the solution is adjusted to 7.4 at 37° C. with HCl (10 mmol·l^−1). 2. TNP buffer: Polyethylene glycol 6000 is dissolved in TN buffer to give a concentration of 3 g·l^−1. 3. S-2238 solution: One vial S-2238 (25 mg; Kabi Diagnostica, Sweden) is dissolved in 20 ml TN buffer to give a concentration of 1.25 mg·ml^−1 (2 mmol·l^−1). 4. Thrombin solution: Human thrombin (16 000 nKat·vial^−1; Centraal Laboratorium voor Bloedtransfusie, Amsterdam, The Netherlands) is dissolved in TNP buffer to give a stock solution of 835 nKat·ml^−1. Immediately before use this solution is diluted with TNP buffer to give a concentration of 3.34 nKat·ml^−1.
The test and reference compounds are dissolved in Milli-Q water to give stock concentrations of 10^−2 mol·l^−1. Each concentration is stepwise diluted with the vehicle to give concentrations of 10^−3, 10^−4 and 10^−5 mol·l^−1. The dilutions, including the stock solution, are used in the assay (final concentrations in the reaction mixture: 3·10^−3; 10^−3; 3·10^−4; 10^−4; 3·10^−5; 10^−5; 3·10^−6; and 10^−6 mol·l^−1, respectively).
At room temperature 0.075 ml and 0.025 ml test compound or reference compound solutions or vehicle are alternately pipetted into the wells of a microtiter plate and these solutions are diluted with 0.115 ml and 0.0165 ml TNP buffer, respectively. An aliquot of 0.030 ml S-2238 solution is added to each well and the plate is pre-heated and pre-incubated with shaking in an incubator (Amersham) for 10 min. at 37° C. Following pre-incubation the hydrolysis of S-2238 is started by addition of 0.030 ml thrombin solution to each well. The plate is incubated (with shaking for 30 s) at 37° C. Starting after 1 min of incubation, the absorbance of each sample at 405 nm is measured every 2 min. for a period of 90 min. using a kinetic microtiter plate reader (Twinreader plus, Flow Laboratories).
All data are collected in an IBM personal computer using LOTUS-MEASURE. For each compound concentration (expressed in mol·l^−1 reaction mixture) and for the blank the absorbance is plotted versus the reaction time in min.
Evaluation of responses: For each final concentration the maximum absorbance was calculated from the assay plot. The IC50-value (final concentration, expressed in μmol·l^−1, causing 50% inhibition of the maximum absorbance of the blank) was calculated using the logit transformation analysis according to Hafner et al. (Arzneim.-Forsch./Drug Res. 1977; 27(II): 1871-3).
`NCC#CCC(NC(=O)C1CCCN1C(=O)C(CC1CCCCC1)NCC(=O)O)C(=O)c1nccs1` (stereo not drawn) [Example 1] displayed an IC50 of 0.56 µM.

`CNC(CC1CCCCC1)C(=O)N1CCCC1C(=O)NC(CC#CCN)C(=O)C(=O)O` [Example 3, N-Me-D-Cha-Pro-LysininylΨ[COCO]—OH] gave an IC50 of 4.3 µM. Compared with the last compound, the IC50 is about 7.7-fold higher.

In turn, `NCC#CCC(NC(=O)C1CCCN1C(=O)C(Cc1ccccc1)NCC(=O)O)C(=O)C(=O)O` [Example 11, HOOC—CH2-D-Phe-Pro-LysininylΨ[COCO]—OH] displayed an IC50 of 5 µM.

The compound `NCC#CCC(NC(=O)C1CCCN1C(=O)C(CC1CCCCC1)NCC(=O)O)C(=O)C(=O)N1CCC1` (stereo not drawn) [Example 15] came in with a half-maximal inhibitory concentration (IC50) of 0.7 µM.

`NCC#CCC(NC(=O)C1CCCN1C(=O)C1NCCC2CCCCC21)C(=O)c1nccs1` (stereo not drawn) [Example 27] gave an IC50 of 4.64 µM. This IC50 is about 6.6-fold higher than that of the compound before.

The compound `NCCCCC(NC(=O)[C@@H]1CCCN1C(=O)[C@@H](Cc1ccc(Cl)cc1)NCC(=O)O)C(=O)c1nccs1` (stereo partly drawn) [Example 30, HOOC—CH2-D-p-Cl-Phe-Pro-Lysininyl-(2-thiazolyl)] had an IC50 of 5.1 µM.

A word on the IC50: it is the point on the concentration scale where inhibition reaches its midpoint. Read a high IC50 as weaker potency.

Source of the values: patent US6410684B1, “Serine protease inhibitors” (Akzo Nobel N.V., priority 1996, dated 2002).
